Source: patent US20190269752A1, “Methods for the Prevention or Treatment of Epilepsy” (Duke University, priority 2018, published 2019)

How the values were obtained:
kindled TrkB^F616A mice [1] = assay: Kindling model, 1NMPP1 treatment in the absence of a preceding evoked seizure; format: in vivo; conditions: no preceding evoked seizure, seizure evoked six days after cessation
Procedure: (§1) Experiments were performed as previously described (He et al. 2010, He et al. 2014). A bipolar stimulating and recording electrode was inserted into the right amygdala (1.0 mm posterior, 2.9 mm lateral to bregma; 4.6 mm below dura). A skull screw was placed over the left frontal lobe as a ground electrode. After a postoperative recovery period of at least 5 days, animals were connected to a Grass Stimulator and monitored by both video and EEG. The current required to evoke an electrographic seizure (electrographic seizure threshold [EST]) was determined by applying a 1 s train of 1 msec biphasic-rectangular pulses at 60 Hz beginning at 20 μA. Additional stimulations were given in 20 μA increments at 1 min intervals until an electrographic seizure was detected. Animals then received two stimulations per day at the EST, with the behavioral seizure scores classified according to a modification of the Racine scale for mice (Borges et al., 2003; Racine, 1972): 0, normal activity; 1, arrest and rigid posture; 2, head nodding; 3, unilateral forelimb clonus; 4, rearing with bilateral forelimbs clonus; 5, rearing and falling; 6, tonic-clonic seizures with violent running and/or jumping. The criterion for “kindled” was the occurrence of three consecutive seizures of class 4 or greater, with limb clonus/tonus lasting at least 12 s.
(§2) Design of individual experiments is presented in panel A of FIGS. 1-5. All “post-kindling seizures” (see FIG. 1A) were evoked with a stimulation intensity determined by assessing the EST a second time, typically 6 days after evoking the “final kindled seizure” the EST was determined by administering stimulations in 20 μA increments every 1 min, beginning at 20 μA, until an electrographic seizure was evoked.
Prior to each administration, stock 100 mM 1NMPP1 was dissolved in a solubilization buffer containing 0.9% NaCL and 2.5% Tween-20 to a concentration of 1.67 mg/mL and dosed at 16.6 ug/g IP every 12 h for a total of five treatments. Vehicle injection served as a control. […]

TrkB kinase = biological target: T1, TrkB kinase (Mus musculus, UniProt P15209); conditions: WT mice (Chen et al. 2005, Liu et al. 2013); cited from earlier work
T1 construct: host or cells: wild type (C57/bl6) mice, endogenous TrkB

kindled TrkB^F616A mice [2] = assay: Kindling model, 1NMPP1 treatment initiated after an evoked seizure (chemical-genetic inhibition of TrkB kinase); format: in vivo
Excerpt: All animal procedures were approved by the Institutional Animal Care and Use Committee (IACUC) at Duke University and conform to the National Institutes of Health and Duke University institutional guidelines for the care and use of experimental animals. Animals were maintained on a 12-hour light/dark cycle with food and water available ad libitum. Wild type (WT) adult (8-12 wk) C57/bl6 male mice were obtained from Charles River. TrkB^F616A mice were originally obtained from Dr. David Ginty (Chen et al. 2005) and backcrossed to the C57/bl6 line for at least seven generations. This knockin mouse harbors a point mutation on the TrkB allele, substituting an alanine for phenylalanine within the ATP binding pocket of the TrkB kinase domain. This mutation renders TrkB protein uniquely susceptible to kinase inhibition by small molecule derivatives of the general kinase inhibitor PP1, including 1-(1,1-dimethylethyl)-3-(1-naphthalenylmethyl)-1H-pyrazolo[3,4-d]pyrimidin-4-amine (1NMPP1). […] Both male and female adult (8-12 wk) homozygous mice were used.
(§3) Video and EEG recordings were analyzed by a blinded, trained observer who quantified behavioral seizure class and duration of both electrographic and behavioral seizure.
(§4) Experiments were performed as previously described (He et al. 2010, He et al. 2014). A bipolar stimulating and recording electrode was inserted into the right amygdala (1.0 mm posterior, 2.9 mm lateral to bregma; 4.6 mm below dura). A skull screw was placed over the left frontal lobe as a ground electrode. After a postoperative recovery period of at least 5 days, animals were connected to a Grass Stimulator and monitored by both video and EEG. The current required to evoke an electrographic seizure (electrographic seizure threshold [EST]) was determined by applying a 1 s train of 1 msec biphasic-rectangular pulses at 60 Hz beginning at 20 μA. Additional stimulations were given in 20 μA increments at 1 min intervals until an electrographic seizure was detected. […]
Design of individual experiments is presented in panel A of FIGS. 1-5. All “post-kindling seizures” (see FIG. 1A) were evoked with a stimulation intensity determined by assessing the EST a second time, typically 6 days after evoking the “final kindled seizure” the EST was determined by administering stimulations in 20 μA increments every 1 min, beginning at 20 μA, until an electrographic seizure was evoked. […]

kindled WT mice = assay: Kindling model, treatment initiated after an evoked seizure in wild type mice; format: in vivo; conditions: 1NMPP1 treatment of WT animals (n=9) following Post-Kindling Seizure #1, p<0.01
Excerpt: All animal procedures were approved by the Institutional Animal Care and Use Committee (IACUC) at Duke University and conform to the National Institutes of Health and Duke University institutional guidelines for the care and use of experimental animals. Animals were maintained on a 12-hour light/dark cycle with food and water available ad libitum. Wild type (WT) adult (8-12 wk) C57/bl6 male mice were obtained from Charles River. TrkB^F616A mice were originally obtained from Dr. David Ginty (Chen et al. 2005) and backcrossed to the C57/bl6 line for at least seven generations. […]
as §3
as §4, with “A bipolar stimulating and recording electrode was inserted into the right amygdala (1.0 mm posterior, 2.9 mm lateral to bregma; 4.6 mm below dura). A skull screw was placed over the left frontal lobe as a ground electrode.” left out

kindled mice = assay: Kindling model, carbamazepine treatment after an evoked seizure; format: in vivo; conditions: carbamazepine 20 mg/kg IP at four hour intervals for two days following Post-Kindling Seizure #1
Procedure: as §1, §2
Carbamazepine (Sigma) was dissolved in a solubilization buffer of 2% Tween-80 and 70% propylene glycol at a concentration of 2 mg/mL and administered at a dose of 20 mg/kg, a dose of carbamazepine sufficient to produce therapeutic blood levels (Grabenstatter et al. 2007). Treatments were given every 4 h for two days. […]

[3] = test system: epileptic animals (KA-SE); assay: Spontaneous recurrent seizures (video-EEG) after kainic acid-induced status epilepticus (KA-SE model of TLE); format: in vivo, mice; conditions: six animals; for SRS during two weeks following cessation of treatment: after carbamazepine 800 mg/kg/day in food pellets for two weeks; for SRS during two weeks on treatment: carbamazepine 800 mg/kg/day in food pellets for two weeks
Excerpt: Determining whether pY816 may be beneficial in epileptic animals required modification of our study of the kainic acid (KA)-status epilepticus (SE) model. To more closely mimic the clinical scenario in which patients seek medical attention for established TLE, we induced KA-SE and then conducted video-EEG recordings to detect spontaneous recurrent seizures during baseline periods of two to four weeks until they developed TLE prior to treating with pY816 peptide. In contrast to just three days of treatment with pY816 deployed in previous studies, we sought a more prolonged treatment with pY816 for the current experiments, namely two weeks. The intravenous route of administration used for three days in the prior studies was not feasible for two weeks, leading us to ask whether treatment via intraperitoneal route could inhibit activation of PLCγ1. We used the phosphorylation of residue Y783 of PLCγ1 detected on western blot of brain lysates as a surrogate measure of PLCγ1 activation.
Having verified that intraperitoneal administration of pY816 inhibited PLCγ1 activation, we then asked whether treatment with pY816 initiated after onset of epilepsy and continued for two weeks would reduce the severity of epilepsy or even induce a remission. Towards that end, we induced KA-SE but then followed the animals for several weeks until they developed TLE as assessed by detection of SRS in continuous video-EEG recordings. We quantified the number of SRS in each animal by blinded review of video-EEG recordings during three distinct two week epochs (FIG. 8): a) baseline; b) treatment with pY816 (n=9) or Scr control (n=6), 20 mg/kg IP twice daily for two weeks (on Tx); c) following termination of treatment (Post Tx). As noted in FIG. 8, following induction of status epilepticus induced by infusion of kainic acid into amygdala (Gu et al 2015) animals underwent continuous video-EEG recording to detect spontaneous recurrent seizures. Following baseline recording of two weeks, animals were treated with either pY816 or Scr control peptide (20 mg/kg) twice daily for two weeks (Day 15-28). Video-EEG recording continued for two weeks following termination of treatment (Post-treatment).
Results are shown in FIG. 9, where each symbol represents the number of seizures experienced by a given animal during Baseline, Treatment (Tx), or Post-treatment (Post Tx) periods. Horizontal bars designate median. Treatment (Tx) consisted of either pY816 or Scr control given 20 mg/kg twice daily for two weeks. Note that seizure detection was performed by analyses of video-EEG recordings by two blinded investigators.
Antiseizure drugs in current clinical use provide symptomatic relief of seizures in many but not all patients, but seizures typically recur upon cessation of the drug. To verify that similar findings occur in our animal model, we tested the effect of an antiseizure drug in current clinical use in our model (carbamazepine). We infused additional animals with KA and assessed the occurrence of SRS with continuous video-EEG monitoring for several weeks. […] Thus, like TLE in humans, continuous treatment with an antiseizure drug suppresses seizures, yet seizures recur upon discontinuation of treatment.

T1 sequence (P15209 32-821): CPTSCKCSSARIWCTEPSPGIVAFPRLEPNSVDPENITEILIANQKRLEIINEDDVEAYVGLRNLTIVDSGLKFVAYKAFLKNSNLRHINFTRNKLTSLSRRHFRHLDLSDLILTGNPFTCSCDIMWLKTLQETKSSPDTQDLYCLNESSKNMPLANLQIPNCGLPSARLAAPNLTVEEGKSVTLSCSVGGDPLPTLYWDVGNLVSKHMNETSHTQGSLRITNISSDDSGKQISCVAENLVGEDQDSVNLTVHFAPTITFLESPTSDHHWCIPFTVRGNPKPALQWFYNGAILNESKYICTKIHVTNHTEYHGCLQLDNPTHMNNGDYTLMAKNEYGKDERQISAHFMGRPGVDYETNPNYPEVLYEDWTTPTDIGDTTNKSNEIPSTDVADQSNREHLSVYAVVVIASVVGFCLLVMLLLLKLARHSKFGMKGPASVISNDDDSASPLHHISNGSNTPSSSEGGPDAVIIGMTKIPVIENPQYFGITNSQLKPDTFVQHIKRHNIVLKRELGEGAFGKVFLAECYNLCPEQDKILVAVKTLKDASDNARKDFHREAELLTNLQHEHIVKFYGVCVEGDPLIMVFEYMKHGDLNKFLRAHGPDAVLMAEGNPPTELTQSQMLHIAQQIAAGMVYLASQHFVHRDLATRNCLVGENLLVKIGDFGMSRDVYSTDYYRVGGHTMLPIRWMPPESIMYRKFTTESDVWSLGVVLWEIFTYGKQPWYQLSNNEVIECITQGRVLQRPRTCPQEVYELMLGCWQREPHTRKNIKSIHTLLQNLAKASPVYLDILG

SMILES | Duration of electrographic seizure versus vehicle (kindled TrkB^F616A mice [1]; 1NMPP1 for two days (IP and drinking water) six days after final kindled seizure) | Duration of behavioral seizure versus vehicle (kindled TrkB^F616A mice [1]; 1NMPP1 for two days) | Seizure class versus vehicle (kindled TrkB^F616A mice [1]; 1NMPP1 for two days) | Detectable effect in WT mice (TrkB kinase) | Duration of electrographic seizure, Post-Kindling Seizure #2 (kindled TrkB^F616A mice [2]; 1NMPP1 16.6 ug/g IP every 12 h, five treatments, plus 25 μM in drinking water, initiated immediately following Post-Kindling Seizure #1, n=16, vehicle 56.6±7.6 s, p<0.01, Final Kindled Sz 43.8±4.5 s) [s] | Duration of behavioral seizure, Post-Kindling Seizure #2 (kindled TrkB^F616A mice [2]; 1NMPP1 16.6 ug/g IP every 12 h, five treatments, plus drinking water, after Post-Kindling Seizure #1, vehicle 139.8±16.5 s, p<0.01) [s] | Behavioral seizure class of Post-Kindling Seizure #2 (kindled TrkB^F616A mice [2]; 1NMPP1 after Post-Kindling Seizure #1, versus vehicle) | Number of animals with subconvulsive (less than Class 4) Post-Kindling Sz #2 (kindled TrkB^F616A mice [2]; 1NMPP1 following Post-Kindling Sz #1, 33 animals received 1NMPP1 or pY816, controls 1 of 28) | Duration of electrographic seizure, Post-Kindling Sz #2 (kindled WT mice; Post-Kindling Sz #1 35.1±5.3 s) [s] | Duration of behavioral seizure, Post-Kindling Sz #2 (kindled WT mice; Post-Kindling Sz #1 72.4±10.2 s) [s] | Duration of behavioral seizure, Post-Kindling Sz #2, versus vehicle (kindled mice) | Seizure class, Post-Kindling Sz #2, versus vehicle (kindled mice) | Duration of electrographic seizure, Post-Kindling Sz #2, versus vehicle (kindled mice; Sz #2 evoked fourteen days after last dose) | SRS during two weeks following cessation of treatment [3] | SRS during two weeks following cessation of treatment ([3]; listed as Carbamazepine) | SRS during two weeks on treatment [3] | SRS during two weeks on treatment ([3]; listed as Carbamazepine)
CC(C)(C)n1nc(Cc2cccc3ccccc23)c2c(N)ncnc21 [1NMPP1, 1-(1,1-dimethylethyl)-3-(1-naphthalenylmethyl)-1H-pyrazolo[3,4-d]pyrimidin-4-amine] | No differences were detected | No differences were detected | No differences were detected | does not have any detectable effect | 29.2 ± 3.8 | 63.5 ± 10 | nonsignificant trend toward reduction | 4 | 67.4 ± 13.5 | 107.6 ± 10.5 | – | – | – | – | – | – | –
NC(=O)N1c2ccccc2C=Cc2ccccc21 [carbamazepine, Carbamazepine] | – | – | – | – | – | – | – | – | – | – | No differences were detected | No differences were detected | No differences were detected | seizures recurred in each animal | seizures recurred following cessation of treatment in each of the six animals | reduced in each of the six animals | effectively suppressed SRS in all but one animal
